The values that follow come from patent US20110038948A1, “Methods of Reducing the Production of Reactive Oxygen Species and Methods of Screening or Identifying Compounds and Compositions that Reduce the Production of Reactive Oxygen Species” (UNIVERSITY OF TENNESSEE RESEARCH FOUNDATION, priority 2005, published 2011).

Test [1] has as its system 3T3-L1 adipocytes. The test is described as follows: Cell proliferation / DNA synthesis in cultured adipocytes (CyQUANT). Format: cell-based, mouse. Conditions: 48 hours. How it is done: 3T3-L1 preadipocytes were incubated at a density of 8000 cells/cm^2 (10 cm^2 dish) and grown in Dulbecco's modified Eagle's medium (DMEM) containing 10% FBS and antibiotics (adipocyte medium) at 37° C. in 5% CO2 in air. Confluent preadipocytes were induced to differentiate with a standard differentiation medium consisting of DMEM-F10 (1:1, vol/vol) medium supplemented with 1% FBS, 1 μM dexamethasone, IBMX (0.5 mM) and antibiotics (1% Penicillin-Streptomycin). Preadipocytes were maintained in this differentiation medium for 3 days and subsequently cultured in adipocyte medium. Cultures were re-fed every 2-3 days to allow 90% of cells to reach full differentiation before conducting chemical treatment. Chemicals were freshly diluted in adipocyte medium before treatment. Cells were washed with fresh adipocyte medium, re-fed with medium containing the different treatments, and incubated at 37° C. in 5% CO2 in air before analysis. Cell viability was measured via trypan blue exclusion. Cells were plated in DMEM with different treatment in duplicate in 96-well plates. After 48 h, a CyQUANT Cell Proliferation Kit (Molecular Probes, Eugene, Oreg.) was used following the manufacturer's protocol. a microplate fluorometer (Packard Instrument Company, Inc., Downers Grove, Ill.) was used to measure CyQUANT fluorescence. Cell viability was determined by Trypan blue exclusion examination.

The test system of test [2] is IL-6. As to the kind of experiment: IL-6 expression in 3T3-L1 adipocytes. In kind it is cell-based, mouse. How it is done:
3T3-L1 pre-adipocytes were incubated at a density of 8000 cells/cm^2 (10 cm^2 dish) and grown in Dulbecco's modified Eagle's medium (DMEM) containing 10% FBS and antibiotics (adipocyte medium) at 37° C. in 5% CO2 in air. Confluent pre-adipocytes were induced to differentiate with a standard differentiation medium consisting of DMEM-F10 (1:1, vol/vol) medium supplemented with 1% fetal bovine serum (FBS), 1 μM dexamethasone, isobutylmethylxanthine (IBMX) (0.5 mM) and antibiotics (1% Penicillin-Streptomycin). Pre-adipocytes were maintained in this differentiation medium for 3 days and subsequently cultured in adipocyte medium. Cultures were re-fed every 2-3 days to allow 90% cells to reach fully differentiation before conducting chemical treatment.
Cells were incubated in serum free medium overnight before chemical treatment. Chemicals were freshly diluted in adipocyte medium before treatment. […] Cell viability was measured via trypan blue exclusion.
Adipocyte and muscle 18s, TNFα, IL-6, IL-8, IL-15 and adiponectin were quantitatively measured using a smart cycler real-time PCR system (Cepheid, Sunnyvale, Calif.) with a TaqMan 1000 Core Reagent Kit (Applied Biosystems, Branchburg, N.J.). […] Reactions of quantitative RT-PCR for standards and unknown samples were also performed according to the instructions of Smart Cycler System (Cepheid, Sunnyvale, Calif.) and TaqMan Real Time PCR Core Kit (Applied Biosystems, Branchburg, N.J.). The mRNA quantitation for each sample was further normalized using the corresponding 18s quantitation. […]
Adipocyte and muscle 18s, CD14, TNFα, MIP, M-CSF, IL-6 and MCP-1 were quantitatively measured using a Smart Cycler Real Time PCR System (Cepheid, Sunnyvale, Calif.) with a TaqMan 1000 Core Reagent Kit (Applied Biosystems, Branchburg, N.J.). […] Reactions of quantitative RT-PCR for standards and unknown samples were also performed according to the instructions of Smart Cycler System (Cepheid, Sunnyvale, Calif.) and TaqMan Real Time PCR Core Kit (Applied Biosystems, Branchburg, N.J.). […]

For test [3], the system named is C2C12 myotubes. The test is described as follows: IL-15 release by myotubes (ELISA). Format: cell-based, murine. Conditions: C2C12 myotubes, 48 hours. The procedure:
IL-15 release in the medium was determined using ELISA. Data are corrected for DNA content. Values are presented as mean±SEM, n=6. Means with different letter differ with p<0.05.
For orientation: In an ELISA, binding on a coated surface is turned into a signal by an enzyme label.

SMILES strings stand for the structures.

With `OO` [H2O2, hydrogen peroxide], the “increase in total DNA of cultured cells” value in test [1] (H2O2 100 nmol/L, p<0.001) is given as 39%. Besides, the “increase in IL-6 expression” value in test [2] (100 nmol/L H2O2, 48 h, p<0.001) is reported as 167%.
Take `C=C1/C(=C\C=C2/CCC[C@]3(C)[C@@H]([C@H](C)CCCC(C)(C)O)CC[C@@H]23)C[C@@H](O)C[C@@H]1O` [calcitriol, 1,25-(OH)2-D3]: the “effect on glucose induced DNA synthesis” value in test [1] (compound plus glucose 30 mmol/L) is recorded as “augmented”. The “effect on IL-6 expression” value is “markedly increased” in test [2] (10 nmol/L 1α, 25-(OH)2-D3, 48 h) and “markedly stimulate” in test [2] (calcitriol 10 nmol/L, 48 hours (Example 4)). Besides, in test [3], the “effect on IL-15 release” value was “inhibitory effects”.
